Counter-ions that a name gives are not always drawn.
Experiments:
acute myocardial infarct = experiment: Rat acute myocardial infarct model (60 min LAD occlusion, reperfusion); assay type: in vivo, Sprague-Dawley rats; conditions: 1.0 mg/kg IV at 90 min post-reperfusion; 24 hr; vs vehicle
Procedure: A rodent model of acute myocardial infarct, in which the proximal left anterior descending coronary artery (LAD) is occluded for 60 min followed by reperfusion, was used to determine whether test agents reduced infarct size at 24 hours.
Myocardial infarcts were created in Sprague-Dawley rats (200-300 g body weight) by a 60 min occlusion of the LAD followed by LAD reperfusion. At 90 min post-reperfusion, either vehicle alone or test agents were injected IV. At 24 hr post-treatment, the ischemic zone (area at-risk, AAR) was delineated by re-ligation of the LAD followed by IV injection of alkali blue dye, after which hearts were sectioned along the short axis and stained using triphenyltetrazolium chloride to delineate viable from infarcted myocardium. Photographic images were then analyzed using morphometric software to calculate infarct area as a percent of the at-risk area.
The following studies were performed as described above, except that the timing of 3-[2,4-diamino-6-(3-hydroxyphenyl)pteridin-7-yl] phenol dihydrochloride salt administration (at 0.1 mg/kg) was varied. In one group, 3-[2,4-diamino-6-(3-hydroxyphenyl)pteridin-7-yl] phenol dihydrochloride salt was administered at both 60 and 240 min post-occlusion.
In a porcine MI model (90 min of LAD occlusion followed by complete reperfusion), a single 0.3 mg/kg IV bolus delivered 30 min post-reperfusion reduced infarct size by […] vs. controls (40% vs. 56%, N=12-13, P=0.03).

recombinant human c-Src = target: T1, recombinant human c-Src (Homo sapiens, UniProt P12931); experiment: c-Src kinase inhibition, KinaseGlo residual ATP; assay type: biochemical; conditions: ATP 3 μM, 90 minutes at room temperature
T1 construct: purchased Panvera, Madison Wis
T1 sequence (P12931 whole entry): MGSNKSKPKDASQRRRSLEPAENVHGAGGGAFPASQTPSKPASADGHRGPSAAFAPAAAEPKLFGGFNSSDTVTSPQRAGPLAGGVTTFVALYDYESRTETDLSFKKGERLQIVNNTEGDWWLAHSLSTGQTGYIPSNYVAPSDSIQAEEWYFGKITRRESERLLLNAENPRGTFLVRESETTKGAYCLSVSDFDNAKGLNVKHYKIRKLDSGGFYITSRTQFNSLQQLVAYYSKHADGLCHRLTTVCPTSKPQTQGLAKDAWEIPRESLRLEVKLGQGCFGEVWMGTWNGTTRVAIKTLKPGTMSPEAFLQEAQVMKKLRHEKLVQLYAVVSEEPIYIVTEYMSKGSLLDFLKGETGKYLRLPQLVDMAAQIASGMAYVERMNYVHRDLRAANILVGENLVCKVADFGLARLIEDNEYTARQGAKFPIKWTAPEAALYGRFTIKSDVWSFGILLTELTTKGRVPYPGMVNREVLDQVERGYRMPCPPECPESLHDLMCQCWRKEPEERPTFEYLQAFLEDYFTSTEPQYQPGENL
Excerpt: (§1) The ability of compounds to inhibit the activity of two Src-family kinases (c-Src and Yes) was directly tested.

recombinant human Yes = target: T2, recombinant human Yes (Homo sapiens, UniProt P07947); experiment: Yes kinase inhibition, KinaseGlo residual ATP; assay type: biochemical; conditions: ATP 3 μM, 90 minutes at room temperature
T2 construct: purchased Panvera, Madison Wis
T2 sequence (P07947 whole entry): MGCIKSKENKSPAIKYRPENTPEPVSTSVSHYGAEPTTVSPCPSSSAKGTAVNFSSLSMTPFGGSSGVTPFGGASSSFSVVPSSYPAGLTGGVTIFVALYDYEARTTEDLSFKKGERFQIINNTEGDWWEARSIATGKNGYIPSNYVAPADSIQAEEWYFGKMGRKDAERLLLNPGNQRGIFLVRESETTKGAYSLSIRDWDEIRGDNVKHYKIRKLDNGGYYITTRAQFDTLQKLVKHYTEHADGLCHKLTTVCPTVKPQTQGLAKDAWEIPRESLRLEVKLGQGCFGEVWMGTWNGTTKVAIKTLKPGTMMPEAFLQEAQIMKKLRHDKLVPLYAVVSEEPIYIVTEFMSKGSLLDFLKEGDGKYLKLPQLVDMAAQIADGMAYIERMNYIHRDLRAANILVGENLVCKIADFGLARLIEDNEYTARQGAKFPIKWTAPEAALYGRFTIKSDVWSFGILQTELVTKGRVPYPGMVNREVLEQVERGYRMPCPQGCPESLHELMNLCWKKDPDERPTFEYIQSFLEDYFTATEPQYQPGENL
Excerpt: as §1

[1] = target: T3, human p120γ subunit of PI3K (Homo sapiens, UniProt P48736); experiment: PI3K p120γ enzymatic activity at two concentrations (Upstate Group); assay type: biochemical; conditions: 100% = no inhibition, 0% = complete inhibition; for remaining activity at 0.5 µM: read-out: Percent Control Value at 0.5 μM; for remaining activity at 5 µM: read-out: Percent Control Value at 5 μM
T3 construct: Upstate Group, Charlottesville, Va; (ran the assay under contract)
T3 sequence (P48736 whole entry): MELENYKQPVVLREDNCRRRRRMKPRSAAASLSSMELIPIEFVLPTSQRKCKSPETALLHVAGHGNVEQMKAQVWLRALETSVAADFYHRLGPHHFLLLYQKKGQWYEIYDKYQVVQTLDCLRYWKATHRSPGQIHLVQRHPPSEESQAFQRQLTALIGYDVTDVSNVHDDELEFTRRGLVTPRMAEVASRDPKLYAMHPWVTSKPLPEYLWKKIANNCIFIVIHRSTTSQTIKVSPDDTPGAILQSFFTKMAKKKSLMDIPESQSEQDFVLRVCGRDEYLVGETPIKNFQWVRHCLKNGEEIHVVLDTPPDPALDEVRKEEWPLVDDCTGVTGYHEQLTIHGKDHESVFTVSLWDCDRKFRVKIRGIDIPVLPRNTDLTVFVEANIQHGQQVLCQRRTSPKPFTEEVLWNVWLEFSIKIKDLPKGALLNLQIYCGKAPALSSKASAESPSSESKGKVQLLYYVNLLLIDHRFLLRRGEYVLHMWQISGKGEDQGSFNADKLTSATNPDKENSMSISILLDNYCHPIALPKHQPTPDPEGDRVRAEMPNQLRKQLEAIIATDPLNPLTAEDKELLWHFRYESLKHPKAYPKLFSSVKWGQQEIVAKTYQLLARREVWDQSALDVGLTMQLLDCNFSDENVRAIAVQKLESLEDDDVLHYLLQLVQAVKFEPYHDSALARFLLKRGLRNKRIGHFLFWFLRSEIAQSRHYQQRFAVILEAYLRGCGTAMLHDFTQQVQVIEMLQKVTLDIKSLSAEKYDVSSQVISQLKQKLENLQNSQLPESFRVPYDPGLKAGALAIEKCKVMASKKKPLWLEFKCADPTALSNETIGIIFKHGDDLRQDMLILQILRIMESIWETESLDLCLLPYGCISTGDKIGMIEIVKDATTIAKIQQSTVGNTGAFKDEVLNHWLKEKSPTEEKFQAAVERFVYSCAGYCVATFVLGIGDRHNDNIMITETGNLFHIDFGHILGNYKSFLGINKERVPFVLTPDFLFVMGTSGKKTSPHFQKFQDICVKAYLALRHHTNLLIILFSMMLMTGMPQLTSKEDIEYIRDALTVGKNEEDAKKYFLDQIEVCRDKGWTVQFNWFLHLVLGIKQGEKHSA
Procedure: The ability of compounds to inhibit the activity of PI3K kinase was determined using biochemical assays. In a first assay, compounds were tested at two concentrations (0.5 and 5 μM) for their ability to inhibit enzymatic activity of the human p120γ subunit of PI3K (the assay being performed under contract by Upstate Group, Charlottesville, Va.).

[2] = target: recombinant phosphatidylinositol 3-kinase-p120γ (PI3K) (Homo sapiens, UniProt P48736); experiment: biochemical
recombinant phosphatidylinositol 3-kinase-p120γ (PI3K), sequence (P48736 whole entry): as above

VEGF-induced edema = experiment: Miles assay, VEGF-induced edema; assay type: in vivo, Sprague-Dawley rats; conditions: VEGF 200 ng/site, 45 min, vehicle 12
Procedure: A rodent model of vascular edema, the Miles assay, was used to screen compounds for their ability to inhibit VEGF-induced edema.
Sprague-Dawley rats were first injected IV with vehicle alone or test agent, followed by IV injection of Evans blue dye, followed by intradermal injections of saline and VEGF (200 ng/injection site) along both shaved flanks. After 45 min, intradermal injection sites were photographed and then scored by a blinded observer for extravasation of Evans blue dye into the dermis (dermal bluing) according to a 4 point scoring system (3=maximal bluing, ≧75% of response in vehicle-treated animals; 2=medium bluing, >25% but <75% of vehicle-treated animals; 1=minimal bluing, ≦25% of vehicle-treated animals; 0=bluing equivalent to saline injection sites on same animal). Individual scores for 4 injection sites (from 2 separate animals) were summed and are shown as a scale of 0-12, with a lower score indicating the greater anti-edema activity; note that all vehicle-treated groups score a value of 12, based on the scoring system outlined above.

cerebral stroke = experiment: Cerebral stroke model, permanent middle cerebral artery occlusion; assay type: in vivo, mice; conditions: 1 mg/kg BW IV 60 min after ligation, 24 hours; for % Infarct reduction: vs vehicle
Procedure: A rodent model of cerebral stroke, in which the middle cerebral artery is permanently occluded, was used to determine whether test agents reduced infarct size at 24 hours.
Cerebral strokes were created in mice by permanent ligation of the middle cerebral artery using a cauterizing tool, followed 60 min later by IV injection of either vehicle alone (50% PEG400 in water) or test agents (at 1 mg/kg BW). Twenty four hours later, brains were sectioned and stained using triphenyltetrazolium chloride to delineate viable from infarcted tissue. Photographic images were then analyzed using morphometric software to calculate infarct area.

With `Cl.Cl.Nc1nc(N)c2nc(-c3cccc(O)c3)c(-c3cccc(O)c3)nc2n1` the “% Infarct reduction” value (acute myocardial infarct) was “Not significant”.
For `Oc1ccc(CNc2ncnc3ncc(-c4ccccc4)nc23)cc1O`, the IC50 (recombinant human c-Src) was 420 nM.
Work on `Nc1cncc2nc(-c3ccc(O)c(O)c3)c(-c3ccc(O)c(O)c3)nc12` [2,3-Bis(3,4-dihydroxyphenyl)-pyrido[3,4-b]pyrazin-8-ylamine hydrochloride salt] yielded an IC50 (recombinant human c-Src) of 1600 nM and an IC50 (recombinant human Yes) of 1000 nM.
In the case of `Nc1cncc2nc(-c3cccc(O)c3)c(-c3cccc(O)c3)nc12` [2,3-Bis(3-hydroxyphenyl)-pyrido[3,4-b]pyrazin-8-ylamine hydrochloride salt], the remaining activity at 0.5 µM [1] is reported as 101% and the remaining activity at 5 µM [1] is reported as 90%.
Molecule `Nc1cncc2nc(-c3ccc(O)cc3)c(-c3ccc(O)cc3)nc12` [2,3-Bis(4-hydroxyphenyl)-pyrido[3,4-b]pyrazin-8-ylamine] has a remaining activity at 0.5 µM [1] of 101% and a remaining activity at 5 µM [1] of 94%.
`Nc1nc(O)c2nc(-c3cccc(O)c3)c(-c3cccc(O)c3)nc2n1` [2-Amino-6,7-bis-(3-hydroxy-phenyl)-pteridin-4-ol] showed a remaining activity at 0.5 µM [1] of 102%, a remaining activity at 5 µM [1] of 99% and an IC50 [2] of 48000 nM.
Molecule `O=C(Nc1ccccc1-c1cc2ccccc2[nH]1)c1ccc(O)c(O)c1` [3,4-Dihydroxy-N-(2-(1H-indol-2-yl)-phenyl)-benzamide] has an IC50 (recombinant human c-Src) of 337 nM and an IC50 (recombinant human Yes) of 303 nM.
For `Nc1nnc2cc(-c3cccc(O)c3)ccc2n1` [3-(3-Amino-benzo[1,2,4]triazin-7-yl)-phenol], the IC50 (recombinant human c-Src) was 12000 nM and the IC50 (recombinant human Yes) was 6800 nM.
`O=C(Nc1ccccc1-c1cc2ccccc2[nH]1)c1cccnc1C(=O)O` [3-[2-(1H-Indol-2-yl)-phenyicarbamoyl]-pyridine-2-carboxylic acid] was tested, and the “Score (scale of 0-12)” value (VEGF-induced edema; 0.5 mg/kg IV) was 5.
In the case of `Oc1ccc(CCNc2ncnc3ncc(-c4ccccc4)nc23)cc1O` [4-[2-(6-Phenyl-pteridin-4-ylamino)-ethyl]benzene-1,2-diol], the IC50 (recombinant human c-Src) is reported as 317 nM.
In the case of `Cl.Nc1ncnc2nc(-c3ccc(O)c(O)c3)c(-c3ccc(O)c(O)c3)nc12` [4-[4-amino-6-(3,4-dihydroxyphenyl)pteridin-7-yl]benzene-1,2-diol hydrochloride salt], the “Score (scale of 0-12)” value (VEGF-induced edema; 0.01 mg/kg IV) is reported as 6, the “Score (scale of 0-12)” value (VEGF-induced edema; 0.1 mg/kg IV) is reported as 3 and the “Score (scale of 0-12)” value (VEGF-induced edema; 1 mg/kg IV) is reported as 5. For the same molecule, the IC50 (recombinant human c-Src) was 1300 nM.
`Nc1ncnc2nc(-c3ccc(O)c(O)c3)c(-c3ccc(O)c(O)c3)nc12` [4-[4-amino-6-(3,4-dihydroxyphenyl)pteridin-7-yl]benzene-1,2-diol methanesulfonate salt] showed an IC50 (recombinant human c-Src) of 800 nM.
For `Nc1ncnc2nc(-c3ccc(O)c(O)c3)c(-c3ccc(O)c(O)c3)nc12` [4-[4-amino-6-(3,4-dihydroxyphenyl)pteridin-7-yl]benzene-1,2-diol], the IC50 [2] was 968 nM.
In the case of `Nc1ncnc2nc(-c3cccc(O)c3)c(-c3cccc(O)c3)nc12` [6,7-Bis(3-hydroxyphenyl)-pteridine-4-ylamine hydrobromide salt], the IC50 (recombinant human c-Src) is reported as 8800 nM.
`Nc1nc(N)c2nc(-c3ccc(O)cc3)c(-c3ccc(O)cc3)nc2n1` [6,7-Bis(4-hydroxyphenyl)-pteridine-2,4-diamine] was tested, and the remaining activity at 0.5 µM [1] was 94% and the remaining activity at 5 µM [1] was 46%.
For `Nc1ncnc2nc(-c3ccccn3)c(-c3ccccn3)nc12` [6,7-Di-pyridin-2-yl-pteridin-4-ylamine], the “% Infarct reduction” value (cerebral stroke) was “Not significant”.
For `Nc1nc(N)c2nc(-c3ccc(O)c(O)c3)c(-c3ccc(O)c(O)c3)nc2n1` [6,7-bis(3,4-dihydroxyphenyl)-pteridine-2,4-diamine dihydrochloride salt], the IC50 (recombinant human c-Src) was 2600 nM and the IC50 (recombinant human Yes) was 1100 nM.
For `Nc1nc(N)c2nc(-c3ccc(O)c(O)c3)c(-c3ccc(O)c(O)c3)nc2n1` [6,7-bis(3,4-dihydroxyphenyl)-pteridine-2,4-diamine], the remaining activity at 0.5 µM [1] was 66%, the remaining activity at 5 µM [1] was 12% and the IC50 [2] was 273 nM.
Work on `Oc1nc(O)c2nc(-c3ccc(O)c(O)c3)c(-c3ccc(O)c(O)c3)nc2n1` [6,7-bis(3,4-dihydroxyphenyl)pteridine-2,4-diol] yielded an IC50 (recombinant human c-Src) of 1800 nM and an IC50 (recombinant human Yes) of 900 nM.
`Nc1ncnc2nc(-c3cccc(O)c3)c(-c3cccc(O)c3)nc12` [6,7-bis(3-hydroxyphenyl)-pteridin-4-ylamine hydrochloride salt] showed an IC50 (recombinant human c-Src) of 10000 nM and an IC50 (recombinant human Yes) of 6300 nM.
Molecule `Nc1ncnc2nc(-c3cccc(O)c3)c(-c3cccc(O)c3)nc12` [6,7-bis(3-hydroxyphenyl)-pteridin-4-ylamine] has a remaining activity at 0.5 µM [1] of 97%, a remaining activity at 5 µM [1] of 71% and an IC50 [2] of 3900 nM.
With `Nc1ncc2nc(-c3cccc(O)c3)c(-c3cccc(O)c3)nc2n1` [6,7-bis(3-hydroxyphenyl)-pteridine-2-amine] the IC50 (recombinant human c-Src) was 27600 nM and the IC50 (recombinant human Yes) was 3800 nM.
Molecule `Nc1ncnc2nc(-c3ccc(O)cc3)c(-c3ccc(O)cc3)nc12` [6,7-bis(4-hydroxyphenyl)-pteridin-4-ylamine] has a remaining activity at 0.5 µM [1] of 102% and a remaining activity at 5 µM [1] of 85%.
For `Nc1nc(N)c2nc(CNCc3ccc4ccccc4c3)cnc2n1` [6-{[(Naphthalen-2-ylmethyl)-amino]-methyl-pteridine-2,4-diamine], the “Score (scale of 0-12)” value (VEGF-induced edema; 0.1 mg/kg IV) was 4.
In the case of `Nc1nnc2cc(-c3ccccc3C(F)(F)F)ccc2n1` [7-(2-Trifluoromethyl-phenyl)-benzo[1,2,4]triazin-3-ylamine], the IC50 (recombinant human c-Src) is reported as 9200 nM and the IC50 (recombinant human Yes) is reported as 7000 nM.
With `Nc1nnc2cc(-c3cccc4ccccc34)ccc2n1` [7-Naphthalen-1-yl-benzo[1,2,4]triazin-3-ylamine] the IC50 (recombinant human c-Src) was 900 nM and the IC50 (recombinant human Yes) was 9300 nM.
`Cc1ccc(-c2nn(C(C)(C)C)c3ncnc(N)c23)cc1` [PP1, reference compound] was tested, and the “Infarct area in mm^3 (mean ± SEM)” value (cerebral stroke) was 35.4 ± 6.4 mm^3 and the “% Infarct reduction” value (cerebral stroke) was “Not significant”.
With `CN(C)S(=O)(=O)c1ccc2c(c1)/C(=C/c1cc3c([nH]1)CCCC3)C(=O)N2` [SU6656, reference compound] the “% Infarct reduction” value (cerebral stroke) was “Not significant”.
Work on `Cc1cccc(C)c1-c1cc(C)c2nc(Nc3ccccc3)nnc2c1` [[7-(2,6-Dimethyl-phenyl)-5-methyl-benzo[1,2,4]triazin-3-yl]-phenyl-amine] yielded an IC50 (recombinant human c-Src) of 294 nM.
`Nc1nc(N)c2nc(-c3ccccc3)c(-c3ccccc3)nc2n1` [compound B, 6,7-diphenyl-pteridine-2,4-diamine] showed a remaining activity at 0.5 µM [1] of 101% and a remaining activity at 5 µM [1] of 81%.
In the case of `Nc1ccc2nc(-c3ccc(O)c(O)c3)c(-c3ccc(O)c(O)c3)nc2n1` [compound C, 2,3-Bis(3,4-dihydroxyphenyl)-pyrido[2,3-b]pyrazin-6-ylamine dihydrochloride salt], the IC50 (recombinant human c-Src) is reported as 1300 nM and the IC50 (recombinant human Yes) is reported as 756 nM.

From US20050282814A1, “Vasculostatic agents and methods of use thereof” (TargeGen, Inc., priority 2002, published 2005)
